# Ends that are not written are not given here.
# Legend:
# [1] = Treatment of patients with type II diabetes (diabetic decompensation); assay type: in vivo; details: five patients, 1 mg every 12 hours intravenously for eight days; clinical and imaging evaluation
# Method: It is exemplified with ten patients who had diabetic decompensation and reached a state of severity, that let them to be treated in the ICU of the hospital "Luis Díaz Soto" in Havana. Five of these patients were treated with a pharmaceutical composition comprising the peptide identified as SEQ ID NO: 1, so that a peptide dose of 1 mg every 12 hours was administered intravenously for eight days. In addition, they received the standard therapy needed for these cases.
# Treatment with this peptide was very safe and was verified by monitoring blood biochemistry parameters and differential blood count.
# [2] = Treatment of patients with ischemic heart disease and high blood pressure; assay type: in vivo; details: six patients, 1 mg every 12 hours intravenously for seven days; clinical and imaging evaluation
# Method: It is exemplified with the results of six patients. They presented ischemic heart disease, associated with high blood pressure, which produced a state of severity. They were treated in the Intermediate Care Unit (IMCU) of the "Luis Díaz Soto" hospital in Havana. These patients were treated with a pharmaceutical composition comprising the peptide identified as SEQ ID NO: 1, so that a peptide dose of 1 mg every 12 hours was administered intravenously for seven days. In addition, they received the standard therapy needed for these cases.
# The treatment with this peptide was very safe, and verified by monitoring blood biochemistry parameters and differential blood count.
sequence,measurement,setting,value
SIDLKDKYKNIGAKLVQLVANNTNEEA [peptide identified as SEQ ID NO: 1],side effects,[1],No side effects were observed
same,side effects,[2],No side effects were observed

# Source: EP4559473A1, “PEPTIDE FOR THE TREATMENT OF DISEASES ASSOCIATED WITH APOLIPOPROTEIN AI OR TRANSTHYRETIN INVOLVEMENT” (Centro de Ingeniería Genética y Biotecnología, priority 2022, dated 2025)
